Assay results from patent US11235066B2, “Micelles and methods” (THE REGENTS OF THE UNIVERSITY OF MICHIGAN, priority 2015, dated 2022).

Tests used:
colonic adenomas = assay: In vivo fluorescence endoscopy of Cy5.5-labeled peptides binding to colonic adenomas; design: species or system CPC; Apc mouse; conditions: Cy5.5-labeled peptide, 200 μM via tail vein, 1 hour circulation
Text: Our laboratory has previously identified a group of peptides that bind specifically to colonic adenomas in the CPC; Apc mouse. Peptides […] (SEQ ID NO: 3), KCCFPAQ (SEQ ID NO: 9), LTTHYKL (SEQ ID NO: 18), and AKPGYLS (SEQ ID NO: 17) were identified using phage display technology. Peptides YTTTNAS (SEQ ID NO: 64) and DNEPIAQ (SEQ ID NO: 65) were included as controls. These peptides were identified based on an unbiased screen of cells and tissues to maximize specific binding in vivo. The peptides were labeled with Cy5.5 and injected via tail vein at a concentration of 200 μM in 1×PBS. The peptides were allowed to circulate for 1 hour to allow for non-specific binding to clear. The colon was rinsed again with tap water. Fluorescence images were then collected. […] Fluorescence images for each adenoma were analyzed by defining a region of interest (ROI) around the adenoma and adjacent normal-appearing mucosa using ImageJ software. The mean values were calculated for each ROI, and the T/B ratio was determined. The mean T/B ratio for each peptide was calculated, and Kruskal-Wallis and Dunn's multiple comparison tests were used to determine statistical differences. […]
We performed in vivo imaging of colon in CPC; Apc mice to select the peptide to label the micelles. […] Adenomas with diameter of >1.5 mm were identified, and the location from the anus was recorded. […]

[1] = mouse, in vivo
Description: All tissues (heart, spleen, kidney, liver, and colon) were fixed in phosphate-buffered formalin for 24 h, paraffin-embedded, and cut in 10 μm sections. Routine histology (H&E) was performed. Renal toxicity was assessed after completion of therapy. Histology (H&E) from representative murine kidney sections (n=4) from the different treatment groups were evaluated for tubules with vacuoles on five random fields (400× magnification) for each specimen.

[2] = Body weight and physical signs during therapy; type: in vivo, CPC; Apc mice; conditions: vs no treatment (NSS) and plain rapamycin micelles
Description: The number of mice (number of adenomas) at the end of the study were n=5 (20), 6 (24), 5 (22), and 7 (21), respectively. Two mice (one in NSS group and one in unlabeled (plain) rapamycin micelle group) died from unexplained cause. […] Mice underwent endoscopy every ˜4 days to monitor adenoma regression and were weighed every 2 days for 5 weeks. A total of n=230 colonoscopy examinations was performed.
A linear mixed effects regression models was used to assess efficacy and toxicity. An interaction between treatment groups and time (days) was estimated in the model to compare adenoma regression rates among the different rapamycin formulations. The model has two random effects to incorporate a correlation between data measured on the same adenoma and a correlation between adenomas found within the same animal. For weights, only one random effect was used to model the correlation between data from the same animal. A comparison was considered significant if P<0.01 to adjust for multiple comparisons. All analyses were performed using SAS ver 9.3. Unless stated otherwise, all data were tested for normality. A one-way ANOVA or non-parametric Kruskal-Wallis was used to determined statistical significance for comparisons among more than 2 groups. If there was at least one difference between treatment groups, multiple comparisons were used to search for pairwise differences. […]

Molecule | target-to-background (T/B) ratio, in vivo fluorescence (colonic adenomas) | target-to-background (T/B) ratio, in vivo fluorescence (colonic adenomas; listed as LTTHYKL) | renal toxicity: number of vacuolated tubules per high-power field [1] | body weight [2]
LTTHYKL (SEQ ID NO: 18) [LTT*] | strongest binding | highest mean value | – | –
CO[C@H]1C[C@@H]2CC[C@@H](C)[C@@](O)(O2)C(=O)C(=O)N2CCCC[C@H]2C(=O)O[C@H]([C@H](C)C[C@@H]2CC[C@@H](O)[C@H](OC)C2)CC(=O)[C@H](C)/C=C(\C)[C@@H](O)[C@@H](OC)C(=O)[C@H](C)C[C@H](C)/C=C/C=C/C=C/1C [free rapamycin, Rapamycin] | – | – | significantly greater number of vacuoles | gained more weight
